Measured values taken from patent publication US20170312253A1 (The Third Affiliated Hospital, Third Military Medical …, priority 2014, published 2017).

Test system: NEP
Experiment: Western blot of Aβ metabolizing enzymes in brain: NEP
Type: in vivo
Details: AD mice brain
Method: APPswe/PS1DE9 (AD) transgenic mice were purchased from Jackson Laboratory, USA (No. 005864), raised in the SPF grade animal house of The Third Affiliated Hospital of The Third Military Medical University. All the processes and correlated experiments applied to the mice were approved and filed with the Animal Ethics Committee of the Third Military Medical University. […] Alternatively, the daily dose for the prophylactic group may be 6.4 mg/kg, and the daily dose for the treatment group may be 12.8 mg/kg. […]
The enzymes related with Aβ formation and degradation their molecule levels, the levels of hyperphosphprylated Tau proteins, and the levels of synaptic plasticity correlated proteins were all detected with Western blot. […] The blotting was detected with the following antibodies: APP C terminal antibody (171610, Millipore), BACE1 antibody (Millipore), Aβ antibody (6E10, Abcam), Nepriiysin antibody (Millipore), RAGE antibody (Millipore), LRP antibody (5A6, Calbiochem), IDE antibody (epitomics), phosphorylated Tau protein antibody, including pS396 (Signalway), pT231 (Signalway), pS199 (epitomics), pS262 (Abcam), SNAP25 antibody (Millipore), Synaptophysin antibody (Millipore), Synapsin I antibody (Millipore), VAMP1 antibody (Millipore), PSD95 antibody (Millipore), F-actin antibody (Actin) (Sigma-Aldrich). […]

CC1=NN(c2ccccc2)C(=O)C1 [Edaravone, 3-methyl-1-phenyl-2-pyrazolin-5-one]
influence on NEP: no influence
